Results published in patent US9926282B2, “Phthalazinones and isoquinolinones as rock inhibitors” (BRISTOL-MYERS SQUIBB COMPANY, priority 2013, dated 2018).
Where a name gives a salt, the structure may show the parent alone.

Biological target: ROCK1 (Homo sapiens (Human), UniProt Q13464)
Experiment: ROCK assay (LABCHIP peptide phosphorylation), ROCK1
Assay type: biochemical
Conditions: 5 μM ATP, 1.5 μM peptide substrate; read-out: ROCK1 IC50

ROCK1, sequence (Q13464 whole entry, species assumed): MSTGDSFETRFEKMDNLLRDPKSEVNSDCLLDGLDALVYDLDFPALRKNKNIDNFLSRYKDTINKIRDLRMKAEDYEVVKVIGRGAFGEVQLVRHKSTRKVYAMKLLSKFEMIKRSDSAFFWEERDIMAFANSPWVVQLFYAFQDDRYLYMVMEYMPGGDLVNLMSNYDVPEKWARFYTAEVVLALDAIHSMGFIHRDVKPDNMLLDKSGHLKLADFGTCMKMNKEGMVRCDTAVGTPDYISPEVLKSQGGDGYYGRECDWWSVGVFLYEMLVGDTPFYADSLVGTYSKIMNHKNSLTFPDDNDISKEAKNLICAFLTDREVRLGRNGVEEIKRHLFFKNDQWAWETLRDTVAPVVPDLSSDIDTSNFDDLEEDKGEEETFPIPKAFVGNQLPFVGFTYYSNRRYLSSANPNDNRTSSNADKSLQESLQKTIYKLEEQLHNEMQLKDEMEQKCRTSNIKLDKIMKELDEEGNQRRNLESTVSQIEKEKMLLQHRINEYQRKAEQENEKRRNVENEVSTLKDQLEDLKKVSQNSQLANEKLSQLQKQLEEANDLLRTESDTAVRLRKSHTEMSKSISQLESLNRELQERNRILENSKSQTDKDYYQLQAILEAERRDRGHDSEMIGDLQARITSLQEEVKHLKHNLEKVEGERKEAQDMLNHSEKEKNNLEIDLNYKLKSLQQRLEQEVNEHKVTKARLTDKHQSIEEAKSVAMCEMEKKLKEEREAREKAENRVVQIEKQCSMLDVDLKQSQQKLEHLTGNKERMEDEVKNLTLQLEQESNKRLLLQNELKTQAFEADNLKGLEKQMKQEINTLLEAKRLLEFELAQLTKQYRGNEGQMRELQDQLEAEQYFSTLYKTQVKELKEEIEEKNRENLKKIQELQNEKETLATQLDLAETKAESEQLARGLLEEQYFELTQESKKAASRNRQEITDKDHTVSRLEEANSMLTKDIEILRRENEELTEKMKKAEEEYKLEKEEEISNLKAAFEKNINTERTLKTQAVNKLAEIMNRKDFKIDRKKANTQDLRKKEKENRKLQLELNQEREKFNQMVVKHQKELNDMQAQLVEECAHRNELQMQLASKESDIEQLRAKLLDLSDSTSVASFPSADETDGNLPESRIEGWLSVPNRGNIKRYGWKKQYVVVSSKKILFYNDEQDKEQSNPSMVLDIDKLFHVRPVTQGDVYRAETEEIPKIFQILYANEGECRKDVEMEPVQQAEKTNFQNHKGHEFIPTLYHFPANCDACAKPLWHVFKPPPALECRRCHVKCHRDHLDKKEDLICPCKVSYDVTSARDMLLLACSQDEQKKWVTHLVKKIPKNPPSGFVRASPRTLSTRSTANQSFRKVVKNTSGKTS

Row | SMILES | IC50
1 | O=C(Nc1ccc(-c2n[nH]c(=O)c3ccccc23)c(CO)c1)c1nn(CCC2CCOCC2)c2ccccc12 [Example 361, N-(3-(Hydroxymethyl)-4-(4-oxo-3,4-dihydrophthalazin-1-yl)phenyl)-1-(2-(tetrahydro-2H-pyran-4-yl)ethyl)-1H-indazole-3-carboxamide] | 101 to 1000 nM
2 | CC(C)(O)Cn1nc(C(=O)Nc2ccc(-c3n[nH]c(=O)c4ccccc34)cc2F)c2ccccc21 [Example 358, N-(2-Fluoro-4-(4-oxo-3,4-dihydrophthalazin-1-yl)phenyl)-1-(2-hydroxy-2-methylpropyl)-1H-indazole-3-carboxamide] | 101 to 1000 nM
3 | O=C(Nc1ccc(-c2n[nH]c(=O)c3ccccc23)cc1)c1cnn(CC(F)(F)C(F)F)c1 [Example 383, N-(4-(4-Oxo-3,4-dihydrophthalazin-1-yl)phenyl)-1-(2,2,3,3-tetrafluoropropyl)-1H-pyrazole-4-carboxamide, TFA] | 101 to 1000 nM
4 | O=C(Nc1ccc(-c2n[nH]c(=O)c3ccccc23)cc1)c1cnn2ccc(OCCO)cc12 [Example 186, 5-(2-hydroxyethoxy)-N-[4-(4-oxo-3,4-dihydrophthalazin-1-yl)phenyl]pyrazolo[1,5-a]pyridine-3-carboxamide] | 101 to 1000 nM
5 | O=C(Nc1ccc(-c2n[nH]c(=O)c3ccccc23)cc1)c1cn[nH]c1 [Example 391, N-(4-(4-Oxo-3,4-dihydrophthalazin-1-yl)phenyl)-1H-pyrazole-4-carboxamide, TFA] | 101 to 1000 nM
6 | O=C(Nc1ccc(-c2n[nH]c(=O)c3ccccc23)cc1)c1cnn(C2CCS(=O)(=O)C2)c1 (stereo not shown) [Example 396, 1-(1,1-Dioxidotetrahydrothiophen-3-yl)-N-(4-(4-oxo-3,4-dihydrophthalazin-1-yl)phenyl)-1H-pyrazole-4-carboxamide, TFA] | 101 to 1000 nM
7 | CC(O)Cn1cc(C(=O)Nc2ccc(-c3n[nH]c(=O)c4ccccc34)cc2)cn1 (stereo not shown) [Example 387, 1-(2-Hydroxypropyl)-N-(4-(4-oxo-3,4-dihydrophthalazin-1-yl)phenyl)-1H-pyrazole-4-carboxamide] | 1000 to 50000 nM
8 | CC1(C)OB(c2ccc(CC(=O)N3Cc4ccccc4C3)c(F)c2)OC1(C)C [Example 36, 2-(2-Fluoro-4-(4,4,5,5-tetramethyl-1,3,2-dioxaborolan-2-yl)phenyl)-1-(isoindolin-2-yl)ethanone] | 1000 to 50000 nM
9 | Cc1ccc2oc(Nc3ccc(-c4n[nH]c(=O)c5ccccc45)cc3)nc2c1 [Example 86, 4-{4-[(5-Methyl-1,3-benzoxazol-2-yl)amino]phenyl}-1,2-dihydrophthalazin-1-one] | 101 to 1000 nM

The next lines start with the values.

Row | IC50 | SMILES
10 | 101 to 1000 nM | O=C(Nc1ccc(-c2n[nH]c(=O)c3ccccc23)cc1)c1cnn(CC(F)(F)F)c1 [Example 376, N-(4-(4-Oxo-3,4-dihydrophthalazin-1-yl)phenyl)-1-(2,2,2-trifluoroethyl)-1H-pyrazole-4-carboxamide, TFA]
11 | 101 to 1000 nM | O=C(Nc1ccc(-c2n[nH]c(=O)c3ccccc23)cc1)c1cn2ccnc(Cl)c2n1 [Example 124, 8-chloro-N-[4-(4-oxo-3,4-dihydrophthalazin-1-yl)phenyl]imidazo[1,2-a]pyrazine-2-carboxamide]
12 | 101 to 1000 nM | O=C(Nc1ccc(-c2c[nH]c(=O)c3ccccc23)cc1)c1ccc(N2CCOCC2)cc1 [Example 250, 4-Morpholino-N-(4-(1-oxo-1,2-dihydroisoquinolin-4-yl)phenyl)benzamide]
13 | 0.1 to 100 nM | O=C(Nc1ccc(-c2n[nH]c(=O)c3ccccc23)cc1)c1cnn(C2CCC2)c1 [Example 385, TFA]
14 | 101 to 1000 nM | O=c1[nH]nc(-c2ccc(Nc3nnc(-c4ccccc4)s3)cc2)c2ccccc12 [Example 87, 4-(4-((5-Phenyl-1,3,4-thiadiazol-2-yl)amino)phenyl)phthalazin-1(2H)-one]
15 | 101 to 1000 nM | O=c1[nH]nc(-c2ccc(Nc3nc4ccccc4s3)cc2)c2ccccc12 [Example 84]
16 | 0.1 to 100 nM | O=C(Nc1ccc(-c2n[nH]c(=O)c3ccccc23)cc1)c1cnn(CC2CC2)c1 [Example 375, 1-(Cyclopropylmethyl)-N-(4-(4-oxo-3,4-dihydrophthalazin-1-yl)phenyl)-1H-pyrazole-4-carboxamide, TFA]
